Results from patent US9580430B2, “9H-pyrimido[4,5-B]indoles and related analogs as BET bromodomain inhibitors” (THE REGENTS OF THE UNIVERSITY OF MICHIGAN, priority 2014, dated 2017).

Assays:
[1] = system: MOLM-13; test: Cell growth inhibition, MOLM-13 leukemia cells (CellTiter-Glo); type: cell-based; details: Homo sapiens, MOLM-13, 96 h; 4 days; read-out: IC50 (nM) MOLM-13 Cell Line (CellTiter-Glo assay)
In short: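 MOLM-13 leukemia cells treated with compounds; viability read by CellTiter-Glo luminescence after 10-20 min reagent incubation at room temperature. IC50 derived from luminescent signal.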

[2] = system: MDA-MB-436; test: Cell growth inhibition, MDA-MB-436 breast cancer cells (WST-8); type: cell-based; details: Homo sapiens, MDA-MB-436, 96 h; 4 days; read-out: IC50 (nM) MDA-MB-436 Cell Line (WST assay)
In short: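 IC50 was computed from WST-8-based cell counting in MDA-MB-436 cells, with absorbance read at 450 nm.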

[3] = molecular target: T1, recombinant BRD4 BD2 (Homo sapiens, UniProt O60885); test: Competitive fluorescence-polarization (FP) binding assay, BRD4 BD2; details: competitive FP assay; protein 6 nM, probe […]; read-out: IC50 (nM) BRD4 BD2; note: probe 1.5 nM
T1 construct: for recombinant BRD4 BD1 and BRD4 BD2 proteins
In short: (§1)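 FP competition with FAM-labelled probe (ZBA248 or BRD-1F) against preincubated protein/probe complex; BD1 at 10 nM and BD2 at 6 nM final, in 100 mM potassium phosphate pH 6.5, 0.01% Triton X-100. 30 min, room temperature. IC50 by nonlinear regression; Ki also derived, using probe Kd from protein saturation.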

[4] = molecular target: T2, recombinant BRD4 BD1 (Homo sapiens, UniProt O60885); test: Competitive fluorescence-polarization (FP) binding assay, BRD4 BD1; details: competitive FP assay; protein 10 nM, probe […]; read-out: IC50 (nM) BRD4 BD1; note: probe 1.5 nM
T2 construct: for recombinant BRD4 BD1 and BRD4 BD2 proteins
In short: as §1

Row | IC50 [1] [nM] | IC50 [2] [nM] | IC50 [3] [nM] | IC50 [4] [nM] | SMILES
1 | 76 | 57 | 17 | 16 | COc1cc2c(cc1-c1c(C)noc1C)[nH]c1nc(C)nc(Nc3cccc4ncccc34)c12 [Cpd. No. 211, 7-(3,5-dimethylisoxazol-4-yl)-6-methoxy-2-methyl-N-(quinolin-5-yl)-9H-pyrimido[4,5-b]indol-4-amine]
2 | 103 | 112 | 8 | 18 | COc1cc2c(cc1-c1c(C)noc1C)[nH]c1nc(C)nc(Nc3cccc(C)c3)c12 [Cpd. No. 212, 7-(3,5-dimethylisoxazol-4-yl)-6-methoxy-2-methyl-N-m-tolyl-9H-pyrimido[4,5-b]indol-4-amine]
3 | 103 | 211 | 28 | 54 | COc1cccc(Nc2nc(C)nc3[nH]c4cc(-c5c(C)noc5C)c(OC)cc4c23)c1 [Cpd. No. 213, 7-(3,5-dimethylisoxazol-4-yl)-6-methoxy-N-(3-methoxyphenyl)-2-methyl-9H-pyrimido[4,5-b]indol-4-amine]
4 | 208 | 249 | 348 | 855 | COc1cc2c(cc1-c1c(C)noc1C)[nH]c1nc(C)nc(Nc3cccc(C(F)(F)F)c3)c12 [Cpd. No. 214, 7-(3,5-dimethylisoxazol-4-yl)-6-methoxy-2-methyl-N-(3-(trifluoromethyl)phenyl)-9H-pyrimido[4,5-b]indol-4-amine]
5 | 220 | 292 | 35 | 19 | CCc1cccc(Nc2nc(C)nc3[nH]c4cc(-c5c(C)noc5C)c(OC)cc4c23)c1 [Cpd. No. 216, 7-(3,5-dimethylisoxazol-4-yl)-N-(3-ethylphenyl)-6-methoxy-2-methyl-9H-pyrimido[4,5-b]indol-4-amine]
6 | 498 | 1930 | 68 | 165 | COc1cc2c(cc1-c1c(C)noc1C)[nH]c1nc(C)nc(Nc3cccc(Cl)c3F)c12 [Cpd. No. 217, N-(3-chloro-2-fluorophenyl)-7-(3,5-dimethylisoxazol-4-yl)-6-methoxy-2-methyl-9H-pyrimido[4,5-b]indol-4-amine]
7 | 37 | 72 | 9 | 17 | COc1cc2c(cc1-c1c(C)noc1C)[nH]c1nc(C)nc(Nc3cccc4[nH]ccc34)c12 [Cpd. No. 220, 7-(3,5-dimethylisoxazol-4-yl)-N-(1H-indol-4-yl)-6-methoxy-2-methyl-9H-pyrimido[4,5-b]indol-4-amine]
8 | 189 | 209 | 57 | 49 | COc1cc2c(cc1-c1c(C)noc1C)[nH]c1nc(C)nc(Nc3cccc4cnccc34)c12 [Cpd. No. 221, 7-(3,5-dimethylisoxazol-4-yl)-N-(isoquinolin-5-yl)-6-methoxy-2-methyl-9H-pyrimido[4,5-b]indol-4-amine]
9 | 629 | 731 | 276 | 183 | COc1cc2c(cc1-c1c(C)noc1C)[nH]c1nc(C)nc(Nc3noc(C)c3C)c12 [Cpd. No. 222, N-(7-(3,5-dimethylisoxazol-4-yl)-6-methoxy-2-methyl-9H-pyrimido[4,5-b]indol-4-yl)-4,5-dimethylisoxazol-3-amine]
10 | 115 | 152 | 55 | 47 | COc1cc2c(cc1-c1c(C)noc1C)[nH]c1nc(C)nc(Nc3cccc4ccncc34)c12 [Cpd. No. 223, 7-(3,5-dimethylisoxazol-4-yl)-N-(isoquinolin-8-yl)-6-methoxy-2-methyl-9H-pyrimido[4,5-b]indol-4-amine]
11 | 192 | 740 | 33 | 105 | COc1cc2c(cc1-c1c(C)noc1C)[nH]c1nc(C)nc(Nc3cc(Cl)ccc3F)c12 [Cpd. No. 224, N-(5-chloro-2-fluorophenyl)-7-(3,5-dimethylisoxazol-4-yl)-6-methoxy-2-methyl-9H-pyrimido[4,5-b]indol-4-amine]
12 | 189 | 315 | 108 | 213 | COc1cc2c(cc1-c1c(C)noc1C)[nH]c1nc(C)nc(Nc3cc(F)cc(Cl)c3)c12 [Cpd. No. 225, N-(3-chloro-5-fluorophenyl)-7-(3,5-dimethylisoxazol-4-yl)-6-methoxy-2-methyl-9H-pyrimido[4,5-b]indol-4-amine]
13 | 94 | 91 | 20 | 21 | COc1cc2c(cc1-c1c(C)noc1C)[nH]c1nc(C)nc(Nc3ccccc3)c12 [Cpd. No. 226, 7-(3,5-dimethylisoxazol-4-yl)-6-methoxy-2-methyl-N-phenyl-9H-pyrimido[4,5-b]indol-4-amine]
14 | 31 | 62 | 22 | 14 | COc1cc2c(cc1-c1c(C)noc1C)[nH]c1nc(C)nc(Nc3cn(C)c4ncccc34)c12 [Cpd. No. 227, 7-(3,5-dimethylisoxazol-4-yl)-6-methoxy-2-methyl-N-(1-methyl-1H-pyrrolo[2,3-b]pyridin-3-yl)-9H-pyrimido[4,5-b]indol-4-amine]

More lines, now with the values behind:

Row | SMILES | IC50 [1] [nM] | IC50 [2] [nM] | IC50 [3] [nM] | IC50 [4] [nM]
15 | COc1cc2c(cc1-c1c(C)noc1C)[nH]c1nc(C)nc(Nc3cn(C)nc3C(C)(C)C)c12 [Cpd. No. 193, N-(3-(tert-butyl)-1-methyl-1H-pyrazol-4-yl)-7-(3,5-dimethylisoxazol-4-yl)-6-methoxy-2-methyl-9H-pyrimido[4,5-b]indol-4-amine] | 8.1 | 47.5 | 2.7 | 3.6
16 | COc1cc2c(cc1-c1c(C)noc1C)[nH]c1nc(C)nc(Nc3c(C(C)C)nn(C)c3C)c12 [Cpd. No. 194, 7-(3,5-dimethylisoxazol-4-yl)-N-(3-isopropyl-1,5-dimethyl-1H-pyrazol-4-yl)-6-methoxy-2-methyl-9H-pyrimido[4,5-b]indol-4-amine] | 13.2 | 59.6 | 14.2 | 10.1
17 | COc1cc2c(cc1-c1c(C)noc1C)[nH]c1nc(C)nc(Nc3cn(C)nc3C3CC3)c12 [Cpd. No. 195, N-(3-cyclopropyl-1-methyl-1H-pyrazol-4-yl)-7-(3,5-dimethylisoxazol-4-yl)-6-methoxy-2-methyl-9H-pyrimido[4,5-b]indol-4-amine] | 29.1 | 75.1 | 14.4 | 16.6
18 | COc1cc2c(cc1-c1c(C)noc1C)[nH]c1nc(C)nc(Nc3c(C)cnn3C(C)(C)C)c12 [Cpd. No. 196, N-(1-(tert-butyl)-4-methyl-1H-pyrazol-5-yl)-7-(3,5-dimethylisoxazol-4-yl)-6-methoxy-2-methyl-9H-pyrimido[4,5-b]indol-4-amine] | 32.7 | 52.5 | 7.5 | 10
19 | COc1cc2c(cc1-c1c(C)noc1C)[nH]c1nc(C)nc(Nc3c(C)cnn3C3CC3)c12 [Cpd. No. 197, N-(1-cyclopropyl-4-methyl-1H-pyrazol-5-yl)-7-(3,5-dimethylisoxazol-4-yl)-6-methoxy-2-methyl-9H-pyrimido[4,5-b]indol-4-amine] | 357 | 511 | 69.9 | 70.1
20 | COc1cc2c(cc1-c1c(C)noc1C)[nH]c1nc(C)nc(Nc3c(C)cnn3C3CCC3)c12 [Cpd. No. 198, N-(1-cyclobutyl-4-methyl-1H-pyrazol-5-yl)-7-(3,5-dimethylisoxazol-4-yl)-6-methoxy-2-methyl-9H-pyrimido[4,5-b]indol-4-amine] | 25.7 | 58.7 | 3.6 | 6.9
21 | CCn1cc(Nc2nc(C)nc3[nH]c4cc(-c5c(C)noc5C)c(OC)cc4c23)c(C(C)C)n1 [Cpd. No. 199, 7-(3,5-dimethylisoxazol-4-yl)-N-(1-ethyl-3-isopropyl-1H-pyrazol-4-yl)-6-methoxy-2-methyl-9H-pyrimido[4,5-b]indol-4-amine] | 30.5 | 67.9 | 14.5 | 13.3
22 | COc1cc2c(cc1-c1c(C)noc1C)[nH]c1nc(C)nc(Nc3cn(C)nc3C3CCC3)c12 [Cpd. No. 200, N-(3-cyclobutyl-1-methyl-1H-pyrazol-4-yl)-7-(3,5-dimethylisoxazol-4-yl)-6-methoxy-2-methyl-9H-pyrimido[4,5-b]indol-4-amine] | 25.4 | 40 | 5.9 | 10.9
23 | COc1cc2c(cc1-c1c(C)noc1C)[nH]c1nc(C)nc(Nc3c(C)noc3C)c12 [Cpd. No. 215, N-(7-(3,5-dimethylisoxazol-4-yl)-6-methoxy-2-methyl-9H-pyrimido[4,5-b]indol-4-yl)-3,5-dimethylisoxazol-4-amine] | 318 | 360 | 57 | 128
24 | COc1cc2c(cc1-c1c(C)noc1C)[nH]c1nc(C)nc(Nc3onc(C)c3C)c12 [Cpd. No. 219, N-(7-(3,5-dimethylisoxazol-4-yl)-6-methoxy-2-methyl-9H-pyrimido[4,5-b]indol-4-yl)-3,4-dimethylisoxazol-5-amine] | 912 | 849 | 365 | 219
